Data on one compound can be found in US20120130146A1, “CONTINUOUS ADMINISTRATION OF CILENGITIDE IN CANCER TREATMENTS” (Merck Patent GmbH, priority 2009, published 2012).

Data set [1] deals with advanced solid malignancy. Kind of data set: Phase I study of continuous infusion EMD 121974 in patients with advanced solid malignancy (safety). Format: in vivo. The method, then:
Background: Integrins avβ3 and avβ5 are cell-surface receptors that play a significant role in angiogenesis by mediating the ligation signal that allows endothelial cells to attach to the extracellular matrix. These integrins share the binding epitope Arg-Gly-Asp (RGD). EMD is an RGD-containing cyclic pentapeptide. In clinical studies to date, EMD has been administered in an intermittent fashion. […] Methods: EMD was administered as a continuous infusion without break in 4-week cycles. Plasma samples for pharmacokinetic studies were obtained weekly in cycle 1 immediately prior to and 2 hours after infusion bag change. Results: To date 21 patients (15 male/6 female, median age 56, median Karnofsky performance status 90%) have been treated at the following dose levels: 1, 2, 4, 8, 12, 18, and 27 mg/h. […] Non-hematologic toxicities have been limited to grade<2 and include alopecia, anorexia, diarrhea, fatigue, hypokalemia, hyponatremia, hypophosphatemia, insomnia, mucositis, nail changes, nausea, and transaminase elevation. […] Pharmacokinetic analysis has been completed for patients treated at the 12 mg/h dose level and below. […] Conclusions: EMD can be safely administered as a continuous infusion at doses of up to at least 18 mg/h. No single toxicity has been consistently observed.

The test system of data set [2] is human umbilical vein endothelial cells (HUVECs). Kind of data set: Growth (Alamar Blue) assay on HUVEC, Example 5. The note with it: agent alone. Type of data set: cell-based. The source says:
The methods established and described in detail previously (Goodman and Hahn a; b) were used to measure the effect of combinations of integrin inhibitors and chemotherapeutics on carcinoma cell and human endothelial cell proliferation.
Points were run in duplicate or in triplicate. Reagent blanks, containing media plus Alamar Blue without cells, were run on each plate. Blank values were subtracted from test values and were routinely 5-10% of uninhibited control values.
5.5 Methods of Evaluation and Statistics Chemotherapeutic agents and αv-integrin blockers were serially diluted alone or together (combination therapy). In some assays the chemotherapeutic agent was serially diluted alone or in combination with of alpha-v integrin blocker. Growth inhibition curves were plotted and a shift of the combination therapy curve to lower concentrations in relation to the single agent curves was interpreted as an additional effect, produced by combination versus monotherapy.
The αv-integrin competitive inhibitor Cilengitide (EMD 121974) was tested alone and in combination with vinorelbine in a serum growth stimulation assay using human carcinoma cells or human umbilical vein endothelial cells (HUVECs). In these assays cells are cultured in serum, or in an endothelial growth stimulation medium (Goodman & Hahn).
(Resazurin is reduced to fluorescent resorufin, in cell work by metabolically active cells.)

Another data set deals with various brain tumors. To be noted: cited from earlier work.
The conditions of data set [3]: human, in vivo; cited from earlier work.
Data set [4] relates to recurrent glioblastoma (GBM). Kind of data set: Phase IIa trial of cilengitide single agent therapy in patients with recurrent glioblastoma. Type of data set: in vivo, human. The procedure:
Background: The present phase IIa study was designed to evaluate the safety, toxicity, and clinical activity of the cyclic RGD pentapeptide cilengitide((=cyclo-(Arg-Gly-Asp-DPhe-NMe-Val)), an inhibitor of integrins avβ3 and avβ5, as a single agent at doses of 500 and 2000 mg in patients (pts) with recurrent glioblastoma (GBM).
Methods: in this multicenter, open-label, randomized, uncontrolled study, pts with GBM and measurable disease that had relapsed after previous therapy with temozolomide and radiotherapy were randomized to receive cilengitide at doses of either 500 mg or 2000 mg i.v., 2×/week, until progression. Histopathology diagnosis and MRI imaging were subject to independent blinded review. The primary endpoint was Progression Free Survival (PFS) at 6 months (mths). Secondary endpoints included response, survival, time to disease progression, safety, tolerability and pharmacokinetics.

Entries after “also recorded” stand apart in the source; their conditions may differ.

The IC50 is the point on the concentration scale where inhibition reaches its midpoint. The term half-life denotes the time in which the quantity being followed falls by half. For the compound `CC(C)[C@H]1C(=O)N[C@@H](CCCN=C(N)N)C(=O)NCC(=O)N[C@@H](CC(=O)O)C(=O)N[C@H](Cc2ccccc2)C(=O)N1C` [Cilengitide, cyclo-(Arg-Gly-Asp-DPhe-NMeVal)], the “dose that can be safely administered as a continuous infusion” value in data set [1] (human, in vivo) is given as “at least 18 mg/h”. The patient death entry in data set [1] (one patient treated at 27 mg/h, after two weeks of therapy) was “unobserved death of unknown cause”. In addition, the IC50 in data set [2] turned out to be 700 nM. Further, the MTD in humans entry with various brain tumors (human, in vivo) was “no known MTD”. For the same compound, the tolerability entry is “very well tolerated” in the data set on various brain tumors (human, in vivo) and “tolerated well” in data set [4] (single agent therapy at two dose levels). The “response in GBM patients” value in the data set with various brain tumors (some of the GBM patients) is “indication of response”. Besides, the half-life in data set [3] is 3 to 5 h. Further, the “median Overall Survival (mOS)” value in data set [4] (500 mg arm) was determined as 6.5 mths; in data set [4] (2000 mg arm) it was 9.9 mths. The “pts who received 12 or more cycles of therapy” value in data set [4] (1 cycle = 4 weeks, both dose arms) is 12.3%. In addition, the “PFS rate at 6 mths” value in data set [4] (500 or 2000 mg i.v. 2x/week, all 81 pts) came to 16.1%. In addition, the “Treatment related NCI CTC grade 3 adverse events” value in data set [4] (at 500 mg, in 1 patient each) is on record as “elevated liver enzymes; also recorded: arthralgia/myalgia”; in data set [4] (at 2000 mg, in 1 patient), “weight increase/edema”. The “pts still progression-free and on treatment” value in data set [4] (at the time the abstract was issued) was determined as 7.4%. Also, the “grade 4 therapy related AEs” value in data set [4] (both dose arms) is on record as “No grade 4 therapy related AEs”. The “single agent activity in recurrent glioblastoma” value in data set [4] (human, in vivo) is listed as “advantagous single agent activity”. Moreover, the cerebral hemorrhage entry in data set [4] (possibly related either to the drug or to the disease) is on record as “One CTC grade 2 cerebral hemorrhage”.
